Test results from PubChem BioAssay (NCI).
Values joined by “and” are separate entries in the source; they are usually repeats but may differ in a detail not shown here. Equal values may be shown once.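 In this assay, cells in 96-well plates receive the compound at five concentrations for 48 hours. Endpoints are linearly interpolated between the surrounding concentrations. GI50: concentration for 50% inhibition of growth. At the TGI there is no net growth.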

What was measured:
Test in all cases: NCI-60 cell line screen, 48 h
[1] = system: OVCAR-5 ovarian
[2] = system: SK-OV-3 ovarian
[3] = system: NCI/ADR-RES ovarian
[4] = system: 786-0 renal
[5] = system: MOLT-4 leukemia
[6] = system: TK-10 renal
[7] = system: NCI-H460 lung
[8] = system: RPMI-8226 leukemia
[9] = system: NCI-H226 lung
[10] = system: UO-31 renal

SMILES	GI50 [1]	TGI [1]	GI50 [2]	TGI [2]	GI50 [3]	TGI [3]	GI50 [4]	TGI [4]	GI50 [5]	TGI [5]	GI50 [6]	TGI [6]	GI50 [7]	TGI [7]	GI50 [8]	TGI [8]	GI50 [9]	TGI [9]	GI50 [10]	TGI [10]
CC(C)(C)OC(=O)NCCCCCCCCCCCCn1c2c(c3ccccc3c1=O)C(=O)c1ccccc1-2	75.9 µM	> 100 µM	22.9 µM	74.1 µM	51.2 µM	> 100 µM	18.3 µM	50.6 µM	49.4 µM	> 100 µM	19.1 µM	45.5 µM	> 100 µM	> 100 µM	> 100 µM	> 100 µM	58.1 µM	> 100 µM	> 100 µM	> 100 µM
CC(C)C(Br)C(=O)NCC(=O)O (stereo unspecified)		> 100 µM		> 100 µM		> 100 µM		> 100 µM		> 100 µM		> 100 µM		> 100 µM		> 100 µM		> 100 µM		> 100 µM
S=C(Nc1ccc(-c2nc3ccccc3s2)cc1)Nc1ccc(-c2nc3ccccc3s2)cc1	20.1 µM	48.8 µM	58.8 µM	> 100 µM	22.5 µM	52 µM	28 µM	83.2 µM	10.2 µM	> 100 µM	18.3 µM	63.2 µM	21 µM	63.9 µM	34.6 µM	> 100 µM	14 µM	38.8 µM	12.4 µM	34 µM
CN1C2C=CC(=O)C1C(C#N)C2 (stereo unspecified)		15.7 µM and > 100 µM		> 100 µM		> 100 µM	16.3 µM and 51.7 µM	35.5 µM and > 100 µM		> 100 µM		> 100 µM		> 100 µM			97.7 µM	> 100 µM	19.1 µM and 39.8 µM	39 µM and > 100 µM
COc1ccc(C(=O)Cn2c(C(=O)c3ccc(Cl)cc3)nc(-c3ccccc3)c2-c2ccccc2)cc1	> 100 µM	> 100 µM	60.1 µM	> 100 µM	> 100 µM	> 100 µM	79.6 µM	> 100 µM	> 100 µM	> 100 µM	46.5 µM	> 100 µM	> 100 µM	> 100 µM	> 100 µM	> 100 µM	> 100 µM	> 100 µM	> 100 µM	> 100 µM
CN(C)CCN=c1nc2c(c(N)n1-c1ccccc1)c(=S)n(-c1ccccc1)c(=S)n2-c1ccccc1	9.95 µM	25.5 µM	6.96 µM	20.9 µM	10.4 µM	26.7 µM	1.33 µM	3.93 µM	2.79 µM	> 21.6 µM	2.36 µM	10.1 µM	2.33 µM	6.29 µM	0.587 µM		13 µM	27.6 µM	1.48 µM	3.83 µM
COc1ccc(CN2c3ccccc3Sc3ccccc32)cc1O	12.7 µM	36 µM	0.521 µM	16.4 µM	0.291 µM	0.863 µM	0.838 µM	21.5 µM	0.42 µM	22.4 µM	2.52 µM	20.5 µM	0.444 µM	13.4 µM	0.483 µM	35.5 µM	12.2 µM	35 µM	0.751 µM	18.9 µM
CCOc1ccc2cc(-c3nn(CC4CCN(C)CC4)c4ncnc(N)c34)ccc2c1	14.4 µM	32.2 µM	11.2 µM	36.1 µM	14.7 µM	28.2 µM	14.5 µM	29.7 µM	4.84 µM	24.6 µM	14.4 µM	34.3 µM	16.7 µM	33.7 µM	10.3 µM	30.5 µM	14.2 µM	40.3 µM	4.2 µM	19.5 µM
Cc1nc(C(=O)OCc2ccccc2)cc(OCc2ccccc2)c1C	21.8 µM	51.6 µM	> 89 µM	> 100 µM	14.1 µM	37.4 µM	21.2 µM	50.9 µM	0.517 µM	7.53 µM	50.4 µM	> 100 µM	22.7 µM	54.5 µM	20.9 µM	> 72.7 µM	19.1 µM	46.9 µM	18.3 µM	39 µM
CCCCC[C@H]1C/C=C2/C(=O)C=C[C@@H]2C/C=C\CCCC(=O)O1	0.221 µM	2.73 µM	0.364 µM	6.11 µM	0.181 µM	1.13 µM	0.164 µM	0.489 µM	0.143 µM	1.06 µM	0.171 µM	0.41 µM	0.156 µM	5.38 µM	0.117 µM	0.366 µM	0.0904 µM	0.18 µM	0.0902 µM	0.171 µM
CCN(CC)c1ccc(/C=N/N=C(N)N)cc1	17.1 µM	> 100 µM	3.47 µM	14 µM	5.44 µM	29.8 µM	6.2 µM	20.7 µM	4.95 µM	35.7 µM	7.87 µM	28.4 µM	3.57 µM	15.1 µM	2.84 µM	13.3 µM	3.84 µM	22.8 µM	6.78 µM	38.9 µM
Fc1ccc(-c2ncn(C3CCNCC3)c2-c2ccnc(Oc3ccc(Cl)cc3)n2)cc1	5.09 µM	14.9 µM	3.88 µM	8.12 µM	6.03 µM	> 22.7 µM	4.54 µM	10.8 µM	5.18 µM	12.9 µM	3.97 µM	7.97 µM	3.79 µM	7.49 µM	5.44 µM	15.3 µM			3.38 µM	12.2 µM
C=C1C(=O)O[C@@H]2C[C@@H](C)[C@@H]3C=CC(=O)[C@@]3(C)[C@@H](OC(=O)CCCC(=O)O[C@H]3[C@@H]4C(=C)C(=O)O[C@@H]4C[C@@H](C)[C@@H]4C=CC(=O)[C@]43C)[C@H]12		0.387 µM		3.8 µM		4.12 µM		0.0448 µM		0.0634 µM		0.296 µM		0.955 µM				1.35 µM		0.289 µM
COc1ccc(C2=NNC(c3sc(Cl)nc3Cl)C2)cc1 (stereo unspecified)	9.21 µM	26.4 µM	13.2 µM	51.4 µM	10.2 µM	> 100 µM	4.06 µM	> 100 µM	3.58 µM	22.1 µM			24.3 µM	75.1 µM	3.86 µM	19.2 µM	2.85 µM	> 100 µM	6.62 µM	20.3 µM
CCNc1ccc2c(c1)C(=O)N(OS(C)(=O)=O)C2=O				> 100 µM		> 100 µM		> 100 µM				> 100 µM		> 100 µM		87.3 µM		97.1 µM		> 100 µM
CCCCS(=O)(=O)c1cc(Nc2ccc(O)c3c2C(=O)c2ccccc2C3=O)ccc1C	> 100 µM	> 100 µM	> 100 µM	> 100 µM	> 100 µM	> 100 µM	> 100 µM	> 100 µM	> 100 µM	> 100 µM			0.431 µM	> 100 µM	> 100 µM	> 100 µM	> 100 µM	> 100 µM	> 100 µM	> 100 µM
BrCc1ccc2ccc3ccc(CBr)nc3c2n1		27.1 µM				5.15 µM		7.58 µM		4.66 µM		5.72 µM		20.2 µM		> 100 µM		15 µM		4.57 µM
NC(=S)c1cccc(C2Nc3ccccc3O2)c1 (stereo unspecified)		> 100 µM		> 100 µM		> 100 µM		> 100 µM		> 100 µM		> 100 µM		> 100 µM				> 100 µM		> 100 µM
COc1cc(N)c(Cl)cc1C(=O)N[C@@H]1CCN(CCCOc2ccc(F)cc2)C[C@@H]1OC	> 100 µM	> 100 µM	> 100 µM	> 100 µM	> 100 µM	> 100 µM	55.5 µM	> 100 µM	29.8 µM	> 100 µM	> 100 µM	> 100 µM	66.9 µM	> 100 µM			> 100 µM	> 100 µM	27.9 µM	> 100 µM
O=C(O)C(Cc1ccccc1)N1C(=O)/C(=C/C(Cl)=C/c2ccc([N+](=O)[O-])cc2)SC1=S (stereo unspecified)	2.82 µM	7.9 µM	4.13 µM	> 100 µM	3.39 µM	> 100 µM	2.2 µM	5.02 µM	3.14 µM	> 100 µM					3.22 µM	> 100 µM	1.58 µM	3.27 µM	1.59 µM	3.1 µM
C=C(CN1CCN(c2ccccn2)CC1)c1ccc(C(=O)Nc2ccccc2N)cc1	6.1 µM	26.4 µM	1.3 µM	4.44 µM	1.31 µM	5.05 µM	1.2 µM	8.15 µM			1.85 µM	8.23 µM	2.81 µM	> 50 µM	1.6 µM	> 50 µM			1.8 µM	7.57 µM
O=C(OCC1=CC(=O)c2ccccc2C1=O)c1ccccc1	24.1 µM	41.1 µM			21.7 µM	60.1 µM	18.9 µM	33.8 µM			15.9 µM	29.6 µM	1.99 µM	6.19 µM	21.3 µM	> 100 µM	14.1 µM	31.5 µM	15.6 µM	29.1 µM
COC(=O)N[C@@H](C)CNc1nccc(-c2cn(C(C)C)nc2-c2cc(Cl)cc(NS(C)(=O)=O)c2F)n1	> 39.2 µM	> 100 µM	0.363 µM	> 100 µM	> 100 µM	> 100 µM	14.2 µM	> 100 µM	50.9 µM	> 100 µM	> 100 µM	> 100 µM			> 70 µM	> 100 µM	> 100 µM	> 100 µM	4.57 µM	> 100 µM
O=C1c2ccccc2-c2c1c1ccccc1c(=O)n2CCNCCNCCNCCNCCn1c2c(c3ccccc3c1=O)C(=O)c1ccccc1-2	> 100 µM	> 100 µM			> 53 µM	96.9 µM	0.102 µM	2.19 µM	< 0.0191 µM		0.177 µM	1.35 µM	0.0669 µM	1.99 µM	0.0178 µM	0.187 µM	0.368 µM	1.95 µM	0.661 µM	2.09 µM
CSC(=S)NCc1cn(C)c2ccccc12	44.1 µM	> 100 µM	30.2 µM	> 100 µM	30 µM	> 100 µM	24.8 µM	> 100 µM			28.7 µM	> 100 µM	29.4 µM	> 100 µM	30.7 µM	> 100 µM	23.4 µM	64.8 µM	22.3 µM	> 100 µM
COc1ccc(-c2cn3ccnc3c(-c3ccc(Cl)cc3)n2)cc1	9.52 µM	> 100 µM	20.7 µM	> 100 µM	3.77 µM	28.2 µM	11.7 µM	> 100 µM	4.9 µM	> 100 µM			10.8 µM	> 100 µM	4.58 µM	91.3 µM	42.8 µM	> 100 µM	33.1 µM	> 100 µM
CCCC(=O)Nc1cc(/C=C/C(=O)N2C[C@@H]3C[C@]34C2=CC(=O)c2[nH]cc(C)c24)n(C)c1	0.142 µM			7.97 µM	0.946 µM	6.38 µM and 4.77 µM	0.021 µM			0.134 µM and 0.515 µM			0.053 µM	2.51 µM and 0.394 µM	0.193 µM	3.72 µM and 0.757 µM		3.76 µM		4.34 µM
OC(Cc1cccc2ccccc12)CN1CCC(c2ccccc2)CC1 (stereo unspecified)		27.7 µM		31.3 µM		28.5 µM		28.3 µM				28.1 µM		28.4 µM		31.8 µM				0.176 µM
Cc1cc(C)nc(NC(=O)COc2ccc(Cl)cc2)c1		> 100 µM		> 100 µM		> 100 µM		> 100 µM		> 100 µM		> 100 µM		> 100 µM		> 100 µM		> 100 µM		
